Tests used:
[1] = test system: shoulder contractures following NBPI; assay: Mouse model of neonatal brachial plexus injury (NBPI), muscle contracture formation; assay type: in vivo, mice; conditions: for severity of shoulder contractures: single systemic dose following NBPI, 4 weeks post NBPI, compared to controls, preliminary experiment
Text: Experimental Model: Unilateral brachial plexus injuries are surgically created at 5 days of age in mice. The immediate paralysis mimics that of the human condition, and can be modulated by different surgical techniques of nerve injury. Within 4 weeks after NBPI, muscle contractures form at the shoulder and elbow, replicating the human contractures. (Not shown.) Muscles can be harvested for analysis of growth and cellular behavior. The use of unilateral injuries preserves the contralateral limb as a control, minimizing the number of mice required.

[2] = test system: adult skeletal muscle regeneration; conditions: not tested in pediatric neuromuscular conditions; cited from earlier work

Compound | contracture severity following NBPI ([1]; neonatal treatment, preliminary) | severity of shoulder contractures [1] | severity of shoulder contractures ([1]; listed as nandrolone) | adult skeletal muscle regeneration [2]
C[C@]12CC[C@H]3[C@@H](CCC4=CC(=O)CC[C@@H]43)[C@@H]1CC[C@@H]2O [Nandrolone] | lessened contracture severity | lessened the severity of shoulder contractures | decreased the severity of the shoulder contracture | 
CCCCc1nc(Cl)c(CO)n1Cc1ccc(-c2ccccc2-c2nn[nH]n2)cc1 [losartan] |  |  |  | improve adult skeletal muscle regeneration

Source: patent US20170326155A1, “NOVEL PHARM[…] FOR NEUROMUSCULAR CONTRACTURES” (Children's Hospital Medical Center, priority 2016, published 2017)
